The values below come from paper PMC11279160 (Microorganisms, 2024).

Data set [1] relates to promastigotes of L. (L.) amazonensis. As to conditions: cited from earlier work.
For data set [2], the system named is amastigotes of L. (L.) amazonensis. The conditions noted are these: cited from earlier work.
Data set [3] concerns L. (L.) amazonensis axenic amastigotes. The experiment in a line: Growth inhibition of axenic amastigotes, MTT assay, 72 h. The format is cell-based, Leishmania (Leishmania) amazonensis. As to conditions: for EC50: read-out: Axenic Amastigotes EC50. The procedure:
(§1) The species Leishmania (Leishmania) amazonensis (IFLA/BR/67/PH8) was maintained in promastigote form at a temperature of 26 °C in a biochemical oxygen demand incubator (BOD) (Eletrolab EL202, São Paulo, Brazil) and in complete Schneider medium (20% heat-inactivated fetal bovine serum (FBS), and 1% antibiotic solution). The L. (L.) amazonensis axenic amastigote forms were obtained through the differentiation of infective promastigote forms using Schneider medium supplemented with 5% FBS, pH 4.6, at a temperature of 32 °C. Parasite growth was observed daily and, if necessary, weekly repeats were performed.
(§2) Promastigote forms or axenic amastigotes in an exponential growth phase were cultured in 96-well plates with complete Schneider’s medium, at 1 × 10^6 parasites/mL. […] The plates were incubated for 72 h under a BOD at 26 °C to prepare promastigotes and 32 °C to prepare amastigotes. When ready, 10 μL of MTT (5 mg/mL) was added to all wells (with the exception of the blank) with an incubation for 4 h. Subsequently, 50 μL of SDS solution (dodecyl sodium sulfate) at 10% was added to dissolve the formazan crystals, and a spectrophotometric reading was then performed (Biotek model ELx800, Winooski, VT, USA) at 540 nm. Schneider medium with 0.5% DMSO was used, considering a 0% growth inhibition for the negative control.
(Tetrazolium assays rely on reduction of a dye to a coloured formazan, in cell work by metabolically active cells.)

Data set [4] relates to L. (L.) amazonensis intracellular amastigotes. The experiment in a line: Activity against intramacrophageal amastigotes in infected J774A.1 macrophages. The format is cell-based, Leishmania (Leishmania) amazonensis. As to conditions: for EC50: read-out: Intracellular Amastigotes EC50; for reduction in macrophage infection rate / reduction in the number of internalized amastigotes per infected macrophage: compared to negative control. The procedure: Macrophages were added to 24-well culture plates containing complete RPMI medium and sterile 13 mm coverslips, 1 × 10^5 J774A.1, and for cell adhesion incubated at 37 °C and 5% CO2 for 3 h. The medium was then removed, and three washes with PBS at 37 °C to remove non-adherent cells were performed. New medium, together with metacyclic promastigote forms in a proportion of 10 promastigotes/macrophage, was then added to the wells for infection and then incubated for another 4 h at 37 °C and 5% of CO2. The medium was then removed again and the plate washed with PBS to remove non-internalized […]. […] Subsequently, the coverslips were removed, stained with a quick panoptic kit, and mounted with Entelan®. In each coverslip, 300 macrophages were counted, together with the number of internalized amastigotes through optical microscopy at 1000× magnification. For the negative control, complete RPMI medium with 0.5% DMSO was used. At the end of the macrophage infection assay, the supernatant was stored at −20 °C for the subsequent evaluation of NO production.

Data set [5] concerns L. (L.) amazonensis promastigotes. Kind of data set: Growth inhibition of promastigotes, MTT assay, 72 h. The format is cell-based. As to conditions: Leishmania amazonensis; for IC50: read-out: Promastigotes IC50. How it is done: as §1, §2
For data set [6], the system named is J774A.1 macrophages infected with L. (L.) amazonensis. The experiment in a line: ROS production in infected macrophages, H2DCFDA test. The format is cell-based, murine. The conditions noted are these: 3.12 μM, 6.25 μM and 12.5 μM, 72 h, compared to negative control. The procedure: Macrophages were incubated in 96-well plates with complete RPMI medium for 3 h at 37 °C, and 5% CO2 for adherence. These were then infected with L. […] Then 10 μL of H2DCFDA was added for a final concentration of 20 μM and incubated for 30 min in the dark at 37 °C. A spectrofluorometer (FLx800) was used to read the fluorescence intensity, using 485 nm of excitation and 528 nm of emission. Antimycin A (5 μM) was used as the positive control for ROS generation.

Data set [7] shares this test system. The experiment in a line: Nitric oxide production by infected macrophages, Griess reagent. As to conditions: 3.12 μM, 6.25 μM and 12.5 μM, 72 h, compared to negative control. The format is cell-based, murine. How it is done:
The measurement of NO production (using macrophage infection supernatant) was performed by the production of nitrite with Griess reagent. About 100 µL of infection supernatant was added to a 96-well plate. In parallel, serial concentrations of NaNO2 in RPMI medium were also added to the plate for interpolation of the standard curve. Griess reagent (1% Sulfanilamide in 10% (v/v) H3PO4 in Milli-Q® water and in equal parts to 0.1% naphthylenediamine in Milli-Q® water Q®) was then added and incubated for 10 min at room temperature. At the end of the incubation, a reading was conducted on a plate reader at 540 nm. The positive control was performed with Escherichia coli lipopolysaccharide at 2 μg/mL.
On the technique in general: Nitrite, measured by Griess reagent, commonly stands in for NO production.

Data set [8] deals with J774A.1 macrophages. Kind of data set: Lysosomal activity, neutral red retention. The format is cell-based, murine. As to conditions: 12.5 μM, 6.25 μM and 3.12 μM, 72 h, relative to negative control. The procedure: After this, 10 μL of PBS and 2% red neutral (VN) were added, with incubation in an incubator for another 30 min. Soon afterwards, the supernatant was aspirated and the plates washed 3× with PBS to remove excess VN. […] Finally, the plates were placed under agitation in a Kline apparatus for 30 min, and then read in a spectrophotometer at 540 nm.

In data set [9] the test system is J774A.1 macrophages. The experiment in a line: Phagocytic capacity, neutral-red-stained zymosan. The conditions noted are these: 12.5 μM, 6.25 μM and 3.12 μM, 72 h, compared to negative control. The format is cell-based, murine. How it is done: At 72 h, 10 μL of VN-stained zymosan was added and then incubated for 30 min. […] To remove what was not phagocytized by the macrophages, the plate was washed with PBS. The plate extraction solution was added, and then solubilization was performed in a Kline shaker. The board was taken for reading on a spectrophotometer at 540 nm.

The subject of data set [10] is L. (L.) amazonensis-infected J774A.1 macrophages. The experiment in a line: Cytokine production in infected macrophages, ELISA. The format is cell-based, murine. As to conditions: 72 h. How it is done:
According to Rodrigues et al., 2021 [27], to carry out cytokine evaluation, the supernatant saved after the J774A.1 macrophage infection assay was used to evaluate cytokine production. Analysis kits (optEIATM ELISA, Pharmingen, San Diego, CA, USA) were used following the manufacturer’s protocol to examine the release of cytokines (TNF-α, IL-1α, IL-6, IL-10, and IL-12), and standard recombinant cytokines were used to produce a curve. The reading was performed in a spectrophotometer at 450 nm.

Data set [11] is described as follows: Cytotoxicity on VERO cells, MTT assay, 72 h. The conditions noted are these: African green monkey, VERO CCL 81 cells.
Procedure: (§3) Murine J774A.1 lineage macrophages and VERO CCL 81 cells were grown in 750 cm^2 cell culture flasks (Corning Glass Workers, New York, NY, USA) containing complete RPMI medium (10% SFB and 1% stabilized anti-mycotic–antibiotic solution), incubated at 37 °C and 5% CO2. The cells were observed on all days and replicates were always conducted after the cells reached confluence, around 72 to 96 h [22].
(§4) The cytotoxicity assay was performed in 96-well plates using MTT for cell viability observation. Plates containing 100 μL of complete RPMI medium and approximately 5 × 10^5 J774A.1 macrophages or VERO CCL 81 cells were incubated for 4 h at 37 °C and 5% CO2 for cell adhesion to occur. […] As a positive control, the reference drugs meglumine antimoniate (200–40,000 µM) and amphotericin B (0.031–2 µM) were used, and as a negative control, complete RPMI 1640 medium at 0.5% DMSO was used (considering 100% cell viability). After 72 h of incubation at 37 °C and 5% CO2, 10 μL of MTT was added and incubated for another 4 h at room temperature. The medium was then removed, and 100 μL of DMSO was added to dilute the formazan crystals created by the MTT [23]. Finally, the plate was taken to be read at 540 nm in a (Biotek model Elx800) spectrophotometer.
Data set [12] can be described thus: Cytotoxicity on macrophages, MTT assay, 72 h. As to conditions: mouse.
Procedure: as §3, §4
Data set [13] can be described thus: in vitro. As to conditions: mouse.
Procedure: as §3, §4
Data set [14] in a line: in vitro. As to conditions: African green monkey.
Procedure: as §3, §4
[15] abbreviates: read-out: growth inhibition of promastigote forms.
Setting [16] is: Leishmania amazonensis, read-out: growth inhibition of axenic amastigote forms.

In general, EC50 refers to the concentration that produces a half-maximal response. Usually IC50 stands for the point on the concentration scale where inhibition reaches its midpoint. In general, inhibition refers to the relative decrease from the control value, in per cent. For orientation: viability means a per cent measure of how many cells are alive, often set against a control.

Where two headings read alike, the source gives them in different places.

On to `C=C(C)[C@@H]1CC[C@]2(C)CC[C@]3(C)[C@H](CC[C@@H]4[C@@]5(C)CC[C@H](O)C(C)(C)[C@@H]5CC[C@]43C)[C@@H]12` [Lupeol], for which the IC50 for promastigotes in data set [1] (L. (L.) amazonensis promastigotes ref 38) is 39.06 µg/mL. For the same compound, the “IC50 for amastigote forms” value in data set [2] (L. (L.) amazonensis amastigote forms ref 38) is recorded as 44.1 µg/mL.
Consider `C[C@H]1[C@H](C)CC[C@]2(C(=O)O)CC[C@]3(C)C(=CC[C@@H]4[C@@]5(C)CC[C@H](O)C(C)(C)[C@@H]5CC[C@]43C)[C@H]12` [ursolic acid], for which, in data set [1] (L. (L.) amazonensis promastigotes ref 37), the IC50 for promastigotes is given as 14.1 µg/mL. In data set [2] (L. (L.) amazonensis axenic amastigotes ref 37), the “IC50 for axenic amastigotes” value is on record as 2.24 µg/mL.
Regarding “Meglumine antimoniate [reference compound]”, the EC50 came out at 1020 ± 25.7 µM in data set [3] (32 °C, MTT) and 541000 ± 13500 nM in data set [4] (infected J774A.1 macrophages, 72 h).
Consider `CC1(C)C=C2[C@H]3CC[C@@H]4[C@@]5(C)CC[C@H](O)C(C)(C)[C@@H]5CC[C@@]4(C)[C@]3(C)CC[C@@]2(C(=O)O)CC1` [Morolic acid, morolic acid], for which the IC50 in data set [5] was determined as 1130 ± 40 nM. In data set [5] (setting [15]), the inhibition at 1.56 µM is 57.6%, the inhibition at 3.12 µM came out at 57.9%, the inhibition at 6.25 µM turned out to be 83.3% and the inhibition at 12.5 µM was 100%. Further, in [5] (setting [15]), the inhibition at 25 µM is 100%, the inhibition at 50 µM was determined as 100% and the inhibition at 100 µM stood at 100%. Besides, in data set [3] (Leishmania amazonensis), the EC50 worked out at 2.74 ± 0.03 µM. Also, in data set [3] (setting [16]), the inhibition at 1.56 µM came out at 34.1%, the inhibition at 3.12 µM came to 68.6%, the inhibition at 6.25 µM was 76.4% and the inhibition at 12.5 µM is 100%. In addition, in [3] (setting [16]), the inhibition at 25 µM was determined as 100%, the inhibition at 50 µM is 100% and the inhibition at 100 µM amounted to 100%. For the same compound, in data set [4] (1.56 μM, 72 h), the “reduction in macrophage infection rate” value is reported as 34% and the “reduction in the number of internalized amastigotes per infected macrophage” value (from here on “reduction … per infected macrophage”) was 59.1%. In data set [4] (3.12 μM, 72 h), the “reduction in macrophage infection rate” value is given as 77.5% and the “reduction … per infected macrophage” value came to 71.6%. Besides, in data set [4] (6.25 μM, 72 h), the “reduction in macrophage infection rate” value is given as 93% and the “reduction … per infected macrophage” value turned out to be 86.8%. In [4] (12.5 μM, 72 h), the “reduction in macrophage infection rate” value worked out at 100% and the “reduction … per infected macrophage” value is 100%. The EC50 in [4] (Leishmania amazonensis, J774.A1, 72 h) was 2560 ± 80 nM. The “levels of ROS produced in infected macrophages” value in data set [6] is listed as “increase”. In addition, the “levels of NO produced in infected macrophages” value in data set [7] is on record as “increase”. The lysosomal activity entry in [8] is “increased”. The “phagocytic capacity for zymosan” value in data set [9] is “significant increase”. In data set [10], the IL-1α levels entry is reported as “no effect” and the IL-12 levels entry is given as “no effect”. Further, the “production of TNF-α” value in [10] (at the higher concentration) is on record as “significant increase”. In data set [10] (at the highest concentrations), the IL-6 levels entry was “significant reduction” and the IL-10 levels result is listed as “significant reduction”. In data set [11], this compound yielded a CC50 at 72 h of 82.9 ± 1.84 µM; a viability at 72 h, 1.56 µM of 100%; a viability at 72 h, 3.12 µM of 100%; a viability at 72 h, 6.25 µM of 93.2%. Moreover, in data set [11], the viability at 72 h, 12.5 µM was 88.8%; the viability at 72 h, 25 µM was 79.4%; the viability at 72 h, 50 µM worked out at 71.2%; the viability at 72 h, 100 µM was determined as 38.8%. Also, the viability at 72 h, 200 µM in [11] was determined as 24.3%. In data set [12], this compound gave a CC50 at 72 h of 68.6 ± 2.46 µM. In addition, in data set [12] (J774A.1 macrophages), the viability at 72 h, 1.56 µM came to 100%; the viability at 72 h, 3.12 µM was 100%; the viability at 72 h, 6.25 µM stood at 100%; the viability at 72 h, 12.5 µM is 100%. In data set [12] (J774A.1 macrophages), this compound had a viability at 72 h, 25 µM of 100%; a viability at 72 h, 50 µM of 65%; a viability at 72 h, 100 µM of 15%; a viability at 72 h, 200 µM of 0%.
Turning to `C[C@@H]1[C@H](O)[C@@H](C)/C=C/C=C/C=C/C=C/C=C/C=C/C=C/[C@H](O[C@@H]2O[C@H](C)[C@@H](O)[C@H](N)[C@@H]2O)C[C@@H]2O[C@](O)(C[C@@H](O)C[C@@H](O)[C@H](O)CC[C@@H](O)C[C@@H](O)CC(=O)O[C@H]1C)C[C@H](O)[C@H]2C(=O)O` [Amphotericin B, reference compound], the IC50 in data set [5] (26 °C, MTT) stood at 360 ± 30 nM. Moreover, the EC50 in data set [3] (Leishmania amazonensis, 32 °C, MTT) turned out to be 0.23 ± 0.01 µM; in [4] (Leishmania amazonensis, J774.A1, infected J774A.1 macrophages, 72 h), 290 ± 40 nM. Further, the CC50 at 72 h is 380 ± 60 nM in [13] and 320 ± 80 nM in data set [14].
